Like-named read-outs stand apart in the source and are kept apart here.
Assay: Pharmacokinetics of omacetaxine in orthotopic glioblastoma PDX and naïve NOD/SCID mice (LC-MS/MS of plasma, brain, liver)
Format: in vivo, mouse
Experimental: An amount of 10 μL medium samples was vortex-mixed with 30 μL of acetonitrile: formic acid (100:1 v/v) containing 100 nM RO-3306 Internal Standard). After centrifugation, the supernatant was 5-fold diluted in water. OMA concentrations were measured using an LC-MS/MS system that consisted of an UltiMate 3000 LC System (Dionex, Sunnyvale, CA, USA) and an API 4000 mass spectrometer (Sciex, Framingham, MA, USA). Samples were analyzed using a ZORBAX Extend-C18 column (Agilent, Santa Clara, CA, USA), preceded by a Security-guard C18 pre-column (Phenomenex, Utrecht, The Netherlands). Elution was performed using a mixture of mobile phase A (0.1% formic acid in water (v/v)) and mobile phase B (methanol) in a 5 min gradient from 20% to 95% B, followed by 95% B that was maintained for 3 min and then re-equilibrated at 20% B. Multiple reaction monitoring parameters were 546.6/298.1 (OMA) and 352.1/186.0 (RO-3306).
Non-obese diabetic severe combined immunodeficient (NOD/SCID) female mice 6–8 weeks of age were used for this study. All experiments were ethically approved by the local Animal Experiments Committee. Patient-derived glioblastoma cell lines were cultured under serum-free conditions prior to injection into the mice. Mice were stereotactically injected with GS607, GS832 (both 2.5 × 10^5 in 5 μL) or GBM8 (1 × 10^5 in 3 μL) in the right striatum 1.0 mm anteroposterior (AP), 2.0 mm medio lateral (ML) and −2.5 mm dorsal ventral (DV) of bregma suture under aseptic conditions. Mice were monitored daily for signs of persistent abnormal behavior and/or breathing, weight loss >20% and development of neurological symptoms such as convulsions, seizures and/or hemiparesis. Mice were euthanized and the mouse brains harvested for histological and LC/MS/MS analysis.
A single dose of 1.5 mg/kg of OMA was administered s.c. to glioblastoma-bearing NOD/SCID and naïve non-tumor-bearing mice. Mice received OMA prior to the timepoint drug delivery experiment, ensuring the presence of significant tumor masses. For GS607, this was at 78 days; for GS832 at 90 days; and for GBM8 at 46 days post-tumor implantation, based on previous survival experiments. Blood samples were collected at 15 min, 30 min, 60 min, 120 min and 240 min via the tail vein and/or submandibular vein and placed in EDTA tubes. Mice were euthanized at 60 min, 120 min or 240 min with cervical dislocation. Brains and livers were surgically collected and snap-frozen in liquid nitrogen (N2). To preserve the drug stability in plasma mouse blood, samples were centrifuged immediately upon collection. Plasma was separated by centrifugation at 3500 rpm at 4 °C for 15 min. Both plasma and tissue samples were stored at −80 °C until LC-MS/MS analysis.

[1] = GBM8 PDX, 60 min, single s.c. dose 1.5 mg/kg, n = 6, 1.5 mg/kg
[2] = GS607-PDX, 60 min, single s.c. dose 1.5 mg/kg, n = 2 blood samples, 1.5 mg/kg
[3] = GS607-PDX, 60 min, single s.c. dose 1.5 mg/kg, n = 4, 1.5 mg/kg
[4] = GS832-PDX, 60 min, single s.c. dose 1.5 mg/kg, n = 5, 1.5 mg/kg
[5] = GS832-PDX, single s.c. dose 1.5 mg/kg

SMILES: COC(=O)C[C@](O)(CCCC(C)(C)O)C(=O)O[C@@H]1C(OC)=C[C@]23CCCN2CCc2cc4c(cc2[C@H]13)OCO4 [OMA, Omacetaxine mepesuccinate]
- [Brain] ± SD, right hemisphere (tumor bearing) [1]: 45.0 ± 20.0 ng/g
- [Liver] ± SD [1]: 998.2 ± 254.3 ng/g
- [Plasma] ± SD [1]: 391.3 ± 57.5 ng/mL
- [Brain]/[Plasma] Ratio ± SD (GBM8 PDX, 60 min, single s.c. dose 1.5 mg/kg, 1.5 mg/kg): 0.11 ± 0.04
- [Brain]/[Plasma] Ratio ± SD [2]: 0.23 ± 0.01
- [Plasma] ± SD [2]: 88.4 ± 9.0 ng/mL
- [Brain] ± SD, right hemisphere (tumor bearing) [3]: 20.7 ± 5.05 ng/g
- [Liver] ± SD [3]: 1653.4 ± 163.6 ng/g
- [Plasma] ± SD (GS832-PDX NOD/SCID mice, single s.c. dose 1.5 mg/kg, 15 min (Table 1), 1.5 mg/kg): 396.3 ± 58.7 ng/mL
- [Plasma] ± SD (GS832-PDX NOD/SCID mice, single s.c. dose 1.5 mg/kg, 60 min (Table 1, n = 9), 1.5 mg/kg): 165.7 ± 28.7 ng/mL
- [Plasma] ± SD (GS832-PDX NOD/SCID mice, single s.c. dose 1.5 mg/kg, 240 min (Table 1), 1.5 mg/kg): 23.9 ± 2.86 ng/mL
- [Brain] ± SD, right hemisphere (tumor bearing) [4]: 18.0 ± 6.3 ng/g
- [Liver] ± SD [4]: 680.0 ± 155.9 ng/g
- [Brain]/[Plasma] Ratio ± SD (GS832-PDX, 60 min, single s.c. dose 1.5 mg/kg, 1.5 mg/kg): 0.10 ± 0.05
- [Liver] ± SD (GS832-PDX, 240 min, single s.c. dose 1.5 mg/kg, n = 5, 1.5 mg/kg): 190.1 ± 47.8 ng/g
- [Brain]/[Plasma] Ratio ± SD (GS832-PDX, 240 min, single s.c. dose 1.5 mg/kg, 1.5 mg/kg): 0.50 ± 0.33
- brain total mean concentration lower than in the liver [5]: approximately 40 fold
- concentrations in tumor-bearing hemisphere versus contralateral hemisphere [5]: not significantly different
- reduction in plasma concentration from peak (15 min) by 4 h (GS832 tumor-bearing mice, single s.c. dose 1.5 mg/kg): 17 fold
- OMA concentrations in tumor-bearing versus contralateral hemispheres (any of the tested models (GS832, GS607, GBM8)): did not detect a significant difference
- concentration at 60 min (female, NOD/SCID, mouse, brain tumor, sc, 1.5 mg/kg, GBM8 PDX, 60 min, single s.c. dose 1.5 mg/kg, read-out: measured brain tumor concentration expressed): 82.5 nM
- concentration at 60 min (female, NOD/SCID, mouse, brain tumor, sc, 1.5 mg/kg, GS607-PDX, 60 min, single s.c. dose 1.5 mg/kg, read-out: measured brain tumor concentration expressed): 37.9 nM
- concentration at 60 min (female, NOD/SCID, mouse, brain tumor, sc, 1.5 mg/kg, GS832-PDX, 60 min, single s.c. dose 1.5 mg/kg, read-out: measured brain tumor concentration expressed): 33 nM
- concentration at 60 min (female, NOD/SCID, mouse, brain, right hemisphere (non-tumor-bearing), sc, 1.5 mg/kg, naïve non-tumor-bearing mice, 60 min, single s.c. dose 1.5 mg/kg, n = 2, read-out: [Brain] ± SD, right hemisphere (non-tumor-bearing)): 16.4 ± 2.9 ng/g
- concentration at 60 min (female, NOD/SCID, mouse, brain, right hemisphere (tumor bearing), sc, 1.5 mg/kg, GBM8 PDX, 60 min, single s.c. dose 1.5 mg/kg, n = 6, read-out: [Brain] ± SD, right hemisphere (tumor bearing)): 45 ± 20 ng/g
- concentration at 60 min (female, NOD/SCID, mouse, brain, right hemisphere (tumor bearing), sc, 1.5 mg/kg, GS607-PDX, 60 min, single s.c. dose 1.5 mg/kg, n = 4, read-out: [Brain] ± SD, right hemisphere (tumor bearing)): 21 ± 5 ng/g
- concentration at 60 min (female, NOD/SCID, mouse, brain, right hemisphere (tumor bearing), sc, 1.5 mg/kg, GS832-PDX, 60 min, single s.c. dose 1.5 mg/kg, n = 5, read-out: [Brain] ± SD, right hemisphere (tumor bearing)): 18 ± 6 ng/g
- concentration at 120 min (female, NOD/SCID, mouse, brain, right hemisphere (tumor bearing), sc, 1.5 mg/kg, GS832-PDX, 120 min, single s.c. dose 1.5 mg/kg, n = 5, read-out: [Brain] ± SD, right hemisphere (tumor bearing)): 20.8 ± 16.9 ng/g
- concentration at 240 min (female, NOD/SCID, mouse, brain, right hemisphere (tumor bearing), sc, 1.5 mg/kg, GS832-PDX, 240 min, single s.c. dose 1.5 mg/kg, n = 5, read-out: [Brain] ± SD, right hemisphere (tumor bearing)): 11.6 ± 6.4 ng/g
- Kp at 60 min (female, NOD/SCID, mouse, brain, sc, 1.5 mg/kg, GBM8 PDX, 60 min, single s.c. dose 1.5 mg/kg, read-out: [Brain]/[Plasma] Ratio ± SD): 0.11
- Kp at 60 min (female, NOD/SCID, mouse, brain, sc, 1.5 mg/kg, GS607-PDX, 60 min, single s.c. dose 1.5 mg/kg, n = 2 blood samples, read-out: [Brain]/[Plasma] Ratio ± SD): 0.23
- Kp at 60 min (female, NOD/SCID, mouse, brain, sc, 1.5 mg/kg, GS832-PDX, 60 min, single s.c. dose 1.5 mg/kg, read-out: [Brain]/[Plasma] Ratio ± SD): 0.1
- Kp at 120 min (female, NOD/SCID, mouse, brain, sc, 1.5 mg/kg, GS832-PDX, 120 min, single s.c. dose 1.5 mg/kg, read-out: [Brain]/[Plasma] Ratio ± SD): 0.37 ± 0.24
- Kp at 240 min (female, NOD/SCID, mouse, brain, sc, 1.5 mg/kg, GS832-PDX, 240 min, single s.c. dose 1.5 mg/kg, read-out: [Brain]/[Plasma] Ratio ± SD): 0.5
- Kp at 60 min (female, NOD/SCID, mouse, brain, sc, 1.5 mg/kg, naïve non-tumor-bearing mice, 60 min, single s.c. dose 1.5 mg/kg, read-out: [Brain]/[Plasma] Ratio ± SD): 0.05 ± 0.01
- Kp at 60 min (female, NOD/SCID, mouse, brain, subcutaneous, 1.5 mg/kg, stated as at 60 min, range across PDX models, read-out: B/P ratio across the PDX models): 0.12 to 0.5
- concentration at 60 min (female, NOD/SCID, mouse, liver, sc, 1.5 mg/kg, GBM8 PDX, 60 min, single s.c. dose 1.5 mg/kg, n = 6, read-out: [Liver] ± SD): 998 ± 254 ng/g
- concentration at 60 min (female, NOD/SCID, mouse, liver, sc, 1.5 mg/kg, GS607-PDX, 60 min, single s.c. dose 1.5 mg/kg, n = 4, read-out: [Liver] ± SD): 1650 ± 163 ng/g
- concentration at 60 min (female, NOD/SCID, mouse, liver, sc, 1.5 mg/kg, GS832-PDX, 60 min, single s.c. dose 1.5 mg/kg, n = 5, read-out: [Liver] ± SD): 680 ± 156 ng/g
- concentration at 120 min (female, NOD/SCID, mouse, liver, sc, 1.5 mg/kg, GS832-PDX, 120 min, single s.c. dose 1.5 mg/kg, n = 5, read-out: [Liver] ± SD): 338 ± 94 ng/g
- concentration at 240 min (female, NOD/SCID, mouse, liver, sc, 1.5 mg/kg, GS832-PDX, 240 min, single s.c. dose 1.5 mg/kg, n = 5, read-out: [Liver] ± SD): 190 ± 48 ng/g
- concentration at 60 min (female, NOD/SCID, mouse, liver, sc, 1.5 mg/kg, naïve non-tumor-bearing mice, 60 min, single s.c. dose 1.5 mg/kg, n = 2, read-out: [Liver] ± SD): 715.9 ± 4.6 ng/g
- concentration at 60 min (female, NOD/SCID, mouse, plasma, sc, 1.5 mg/kg, GBM8 PDX, 60 min, single s.c. dose 1.5 mg/kg, n = 6, read-out: [Plasma] ± SD): 391 ± 58 ng/mL
- concentration at 60 min (female, NOD/SCID, mouse, plasma, sc, 1.5 mg/kg, GS607-PDX, 60 min, single s.c. dose 1.5 mg/kg, n = 2 blood samples, read-out: [Plasma] ± SD): 88 ± 9 ng/mL
- concentration at 15 min (female, NOD/SCID, mouse, plasma, sc, 1.5 mg/kg, GS832-PDX NOD/SCID mice, single s.c. dose 1.5 mg/kg, 15 min (Table 1), read-out: [Plasma] ± SD): 396 ± 59 ng/mL
- concentration at 30 min (female, NOD/SCID, mouse, plasma, sc, 1.5 mg/kg, GS832-PDX NOD/SCID mice, single s.c. dose 1.5 mg/kg, 30 min (Table 1), read-out: [Plasma] ± SD): 282 ± 65.4 ng/mL
- concentration at 60 min (female, NOD/SCID, mouse, plasma, sc, 1.5 mg/kg, GS832-PDX NOD/SCID mice, single s.c. dose 1.5 mg/kg, 60 min (Table 1, n = 9), read-out: [Plasma] ± SD): 166 ± 29 ng/mL
- concentration at 120 min (female, NOD/SCID, mouse, plasma, sc, 1.5 mg/kg, GS832-PDX NOD/SCID mice, single s.c. dose 1.5 mg/kg, 120 min (Table 1, n = 10), read-out: [Plasma] ± SD): 57.8 ± 10.8 ng/mL
- concentration at 240 min (female, NOD/SCID, mouse, plasma, sc, 1.5 mg/kg, GS832-PDX NOD/SCID mice, single s.c. dose 1.5 mg/kg, 240 min (Table 1), read-out: [Plasma] ± SD): 24 ± 3 ng/mL
- concentration at 60 min (female, NOD/SCID, mouse, plasma, sc, 1.5 mg/kg, GS832-PDX, 60 min, single s.c. dose 1.5 mg/kg, n = 5 (Table 2), read-out: [Plasma] ± SD): 186 ± 21.1 ng/mL
- concentration at 120 min (female, NOD/SCID, mouse, plasma, sc, 1.5 mg/kg, GS832-PDX, 120 min, single s.c. dose 1.5 mg/kg, n = 5 (Table 2), read-out: [Plasma] ± SD): 55.6 ± 10.7 ng/mL
- concentration at 240 min (female, NOD/SCID, mouse, plasma, sc, 1.5 mg/kg, GS832-PDX, 240 min, single s.c. dose 1.5 mg/kg, n = 5 (Table 2), read-out: [Plasma] ± SD): 23.5 ± 0.7 ng/mL
- concentration at 60 min (female, NOD/SCID, mouse, plasma, sc, 1.5 mg/kg, naïve non-tumor-bearing mice, 60 min, single s.c. dose 1.5 mg/kg, n = 2, read-out: [Plasma] ± SD): 224 ± 12 ng/mL
- Tmax (female, NOD/SCID, mouse, plasma, sc, GS832 tumor-bearing mice, single s.c. dose 1.5 mg/kg, read-out: time of peak concentration in plasma (converted)): 15 min
- half-life (female, NOD/SCID, mouse, sc, plasma, GS832 tumor-bearing mice, single s.c. dose 1.5 mg/kg): 50 min
- [Brain] ± SD, right hemisphere (non-tumor-bearing) (naïve non-tumor-bearing mice, 60 min, single s.c. dose 1.5 mg/kg, n = 2, 1.5 mg/kg): 16.4 ± 2.9 ng/g

Source: article PMC11678797, “A Repurposed Drug Selection Pipeline to Identify CNS-Penetrant Drug Candidates for Glioblastoma” (Pharmaceuticals, 2024)
